# Experimental data published in ChEMBL document CHEMBL1201862, “PubChem BioAssay data set” (2004).
#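 Protocol summary: plate cells (96-well), add compound at 5 concentrations, incubate 48 h, interpolate endpoints linearly. GI50 = concentration required for 50% inhibition of growth.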 The source made the active and inactive calls. No stated cut-off is given here; in the data, active = GI50 up to about 1.1 µM and inactive = higher. Where a SMILES comes first, the peptide text is derived from it. The star is where a group is joined. Boc = CC(C)(C)OC(=O)*
# Tests used:
# Test in all cases: inhibition of tumour cell growth, NCI panel, 48 h
# [1] = tested on: ACHN
# [2] = tested on: BT-549
# [3] = tested on: CAKI-1
# [4] = tested on: CCRF-CEM
# [5] = tested on: COLO 205
# [6] = tested on: DU-145
# [7] = tested on: EKVX
# [8] = tested on: HCC 2998
# [9] = tested on: HCT-15
# [10] = tested on: K562
# [11] = tested on: KM12
# [12] = tested on: NCI-H226
# [13] = tested on: OVCAR-8
# [14] = tested on: SNB-19
# [15] = tested on: T47D
# [16] = tested on: U-251
# [17] = tested on: UACC-257
# [18] = tested on: UO-31
# [19] = tested on: NCI-H522
# [20] = tested on: HL-60
Compound,GI50 [1],GI50 [2],GI50 [3],GI50 [4],GI50 [5],GI50 [6],GI50 [7],GI50 [8],GI50 [9],GI50 [10],GI50 [11],GI50 [12],GI50 [13],GI50 [14],GI50 [15],GI50 [16],GI50 [17],GI50 [18],GI50 [19],GI50 [20]
CCN(CC)C(=S)SNCCc1ccc(S(N)(=O)=O)cc1,17.9 µM (inactive),16 µM (inactive),14 µM (inactive),0.169 µM (active),29.2 µM (inactive),14 µM (inactive),20 µM (inactive),21.6 µM (inactive),16.8 µM,20 µM (inactive),16.6 µM (inactive),42.7 µM (inactive),12.6 µM (inactive),20 µM (inactive),18.1 µM (inactive),15.5 µM (inactive),15.5 µM (inactive),13.1 µM (inactive),,
CCc1c(O)cc(=O)oc1-c1ccc(OC)c(OC)c1,> 100 µM (inactive),> 100 µM (inactive),> 100 µM (inactive),> 100 µM (inactive),> 100 µM (inactive),> 100 µM (inactive),> 100 µM (inactive),> 100 µM (inactive),> 100 µM,> 100 µM (inactive),> 100 µM (inactive),,> 100 µM (inactive),> 100 µM (inactive),> 100 µM (inactive),> 100 µM (inactive),> 100 µM (inactive),> 100 µM (inactive),64.1 µM (inactive),
CC[C@@H](C)[C@H]([C@H](CC(=O)N1CCC[C@@H]1[C@@H](OC)[C@H](C)C(=O)N[C@H](Cc1ccccc1)c1nccs1)OC)N(C)C(=O)[C@H](NC(=O)[C@@H](C(C)C)N(C)C)C(C)C,0.000439 µM (active),< 0.01 µM (active),,,7.13e-05 µM (active),< 0.01 µM (active),0.000277 µM (active),0.00029 µM (active),0.000366 µM,6.93e-05 µM (active),1.67e-05 µM (active),0.000153 µM (active),0.000286 µM (active),0.000267 µM (active),> 77.6 µM (inactive),0.000249 µM (active),0.000262 µM (active),0.00206 µM (active),< 0.01 µM (active),3.51e-05 µM (active)
CC(NC(=O)C1CCCN1C(=O)CNC(=O)OC(C)(C)C)C(=O)O (stereo not drawn) (Boc-Gly-Pro-Ala-OH; configuration not given here),> 100 µM (inactive),> 100 µM (inactive),> 100 µM (inactive),,> 100 µM (inactive),> 100 µM (inactive),> 100 µM (inactive),> 100 µM (inactive),> 100 µM,> 100 µM (inactive),> 100 µM (inactive),> 100 µM (inactive),> 100 µM (inactive),> 100 µM (inactive),> 100 µM (inactive),> 100 µM (inactive),> 100 µM (inactive),> 100 µM (inactive),> 100 µM (inactive),
N#CCc1nc(Cc2ccccc2)n[nH]1,> 100 µM (inactive),> 100 µM (inactive),> 100 µM (inactive),> 100 µM (inactive),> 100 µM (inactive),> 100 µM (inactive),> 100 µM (inactive),> 100 µM (inactive),> 100 µM,> 100 µM (inactive),> 100 µM (inactive),,> 100 µM (inactive),> 100 µM (inactive),> 100 µM (inactive),> 100 µM (inactive),> 100 µM (inactive),> 100 µM (inactive),> 100 µM (inactive),> 100 µM (inactive)
CC(=O)OCC1OC(N2C(C)=C(C(C)=O)C(c3ccc(Cl)cc3)C(C#N)=C2S)C(OC(C)=O)C(OC(C)=O)C1OC(C)=O (configuration not stated),77.8 µM (inactive),62.4 µM (inactive),> 100 µM (inactive),44.1 µM (inactive),19.4 µM (inactive),68.5 µM (inactive),,47.1 µM (inactive),41.3 µM,31.1 µM (inactive),79.8 µM (inactive),44.1 µM (inactive),52.5 µM (inactive),> 100 µM (inactive),24.5 µM (inactive),66.5 µM (inactive),48.8 µM (inactive),36.8 µM (inactive),32.4 µM (inactive),37.3 µM (inactive)
O=C1CC2C(=O)C1C(C(=O)O)C2C(=O)O (configuration not stated),> 100 µM (inactive),> 100 µM (inactive),> 100 µM (inactive),> 100 µM (inactive),> 100 µM (inactive),> 100 µM (inactive),> 100 µM (inactive),,> 100 µM,> 100 µM (inactive),> 100 µM (inactive),> 100 µM (inactive),> 100 µM (inactive),> 100 µM (inactive),> 100 µM (inactive),> 100 µM (inactive),> 100 µM (inactive),> 100 µM (inactive),> 100 µM (inactive),> 100 µM (inactive)
c1ccc2c3c([nH]c2c1)C1c2[nH]c4ccccc4c2CCN1CC3,13.8 µM (inactive),16.1 µM (inactive),18.7 µM (inactive),13.5 µM (inactive),3.79 µM (inactive),13.2 µM (inactive),6.12 µM (inactive),7.64 µM (inactive),11 µM,5.78 µM (inactive),12.5 µM (inactive),14.7 µM (inactive),8.18 µM (inactive),,14.9 µM (inactive),,14.5 µM (inactive),5.62 µM (inactive),11.6 µM (inactive),16.8 µM (inactive)
